Earlier results in patent publication US7833744B2, “Methods to evaluate cytochrome P450 2C19 isoenzyme activity using a breath test” (Cambridge Isotope Laboratories, Inc., priority 2006, dated 2010).

Legend:
CYP2C19 [1] = target: CYP2C19 (Homo sapiens, UniProt P33261); conditions: in EMs
CYP2C19 [2] = conditions: PMs vs EMs
platelets = conditions: healthy volunteers who carry CYP2C19*2 compared to CYP2C19*1*1 genotype

Sequence of CYP2C19 (Homo sapiens, UniProt P33261) (P33261 whole entry): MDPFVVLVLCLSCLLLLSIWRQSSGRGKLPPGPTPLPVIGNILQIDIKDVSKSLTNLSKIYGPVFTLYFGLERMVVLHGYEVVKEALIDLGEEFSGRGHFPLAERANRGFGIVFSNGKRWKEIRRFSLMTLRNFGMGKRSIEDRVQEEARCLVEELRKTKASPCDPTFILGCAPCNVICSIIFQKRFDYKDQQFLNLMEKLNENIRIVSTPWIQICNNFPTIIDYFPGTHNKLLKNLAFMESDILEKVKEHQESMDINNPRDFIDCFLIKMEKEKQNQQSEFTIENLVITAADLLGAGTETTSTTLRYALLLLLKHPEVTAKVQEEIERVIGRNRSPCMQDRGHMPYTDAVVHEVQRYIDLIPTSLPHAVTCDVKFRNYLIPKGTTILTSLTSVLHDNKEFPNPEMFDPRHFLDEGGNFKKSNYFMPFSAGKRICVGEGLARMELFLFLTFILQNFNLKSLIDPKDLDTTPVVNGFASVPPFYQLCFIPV

share of dose cleared by CYP2C19 (CYP2C19 [1])	exposure in PMs relative to EMs of CYP2C19 (CYP2C19 [2])	SMILES	anti-platelet effect (platelets)
approximately 80%	about six-fold higher	Cc1c(OCC(F)(F)F)ccnc1C[S+]([O-])c1nc2ccccc2[nH]1 (stereo not shown) [lansoprazole]	
		COC(=O)[C@H](c1ccccc1Cl)N1CCc2sccc2C1 [clopidogrel]	no anti-platelet effect
approximately 80%	about six-fold higher	COc1ccc2[nH]c([S+]([O-])Cc3ncc(C)c(OC)c3C)nc2c1 (stereo not shown) [omeprazole]	
approximately 80%	about six-fold higher	COc1ccnc(C[S+]([O-])c2nc3ccc(OC(F)F)cc3[nH]2)c1OC (stereo not shown) [pantoprazole]	
